Test results: US10409869B2, “(R)- and (S)-1-(3-(3-N,N-dimethylaminocarbonyl)phenoxyl-4-nitrophenyl)-1-ethyl-N,N'-bis (ethylene)phosphoramidate, compositions and methods for their use and preparation” (OBI Pharma, Inc., priority 2015, dated 2019)

Assay: Hematology in monkeys, 2 mg/kg 30-min IV infusion
Assay type: in vivo, Cynomolgus monkeys
Procedure: TH 3423 and TH 3424 were tested in […] naïve monkeys (1 male and one female for each compound at 2 mg/kg) with 30-min intravenous infusion, TK sampling: on Day 1 and Day 15: 0.25, 0.5, 0.75, 1 and 2 hr post infusion initiation. Serum chemistry and hematology: pre-dose (Day 1), day 5, day 8 (pre-dose), day 15 (pre-dose), day 22 and day 28. Clinical observation: Daily during the study, total 35 days. Food consumption: Daily during the study, total 35 days. Bodyweight measurement: Twice weekly for five weeks.

## C[C@H](OP(=O)(N1CC1)N1CC1)c1ccc([N+](=O)[O-])c(Oc2cccc(C(=O)N(C)C)c2)c1 (single isomer, unassigned) [TH3424]
female, Day 1 (pre-dose)
  % BASO: 0.1%
  % EOS: 3.3%
  % MONO: 0.9%
  % NEUT: 72.8%
  HCT: 35.7%
  HGB: 118 g/L
  LYM: 22.9%
  MCH: 25.4 pg
  MCHC: 331 g/L
  MCV: 76.8 fL
  MPV: 13 fL
  PCT: 0.277%
  PDW: 15.4
  PLT: 2.13e+11 L⁻¹
  RBC: 4.65e+12 L⁻¹
  RDW-CV: 11.5%
  RDW-SD: 37.4 fL
  WBC: 1.164e+10 L⁻¹
  abs_basos: 1e+07 L⁻¹
  abs_eos: 3.9e+08 L⁻¹
  abs_lymphs: 2.66e+09 L⁻¹
  abs_monos: 1.1e+08 L⁻¹
  abs_neuts: 8.47e+09 L⁻¹
female, Day 8 (pre-dose)
  % EOS: 1.50%
  % MONO: 0.20%
  % NEUT: 49.10%
  HCT: 39.30%
  HGB: 130.00 g/L
  LYM: 18.90%
  MCH: 25.30 pg
  MCHC: 331.00 g/L
  MCV: 76.30 fL
  MPV: 12.80 fL
  PCT: 0.50%
  PDW: 15.50
  PLT: 3.9e+11 L⁻¹
  RBC: 5.15e+12 L⁻¹
  RDW-CV: 11.20%
  RDW-SD: 36.20 fL
  WBC: 1.691e+10 L⁻¹
  abs_basos: 5.13e+09 L⁻¹
  abs_eos: 2.6e+08 L⁻¹
  abs_lymphs: 3.2e+09 L⁻¹
  abs_monos: 3e+07 L⁻¹
  abs_neuts: 8.29e+09 L⁻¹
female, Day 15 (pre-dose)
  % BASO: 0.90%
  % EOS: 1.70%
  % MONO: 3.00%
  % NEUT: 80.8%
  HCT: 36.3%
  HGB: 125 g/L
  LYM: 13.60%
  MCH: 25.3 pg
  MCHC: 344 g/L
  MCV: 73.5 fL
  MPV: 12.5 fL
  PCT: 0.275%
  PDW: 16.2
  PLT: 2.21e+11 L⁻¹
  RBC: 4.94e+12 L⁻¹
  RDW-CV: 11.0%
  RDW-SD: 34.1 fL
  WBC: 2.07e+10 L⁻¹
  abs_basos: 1.9e+08 L⁻¹
  abs_eos: 3.7e+08 L⁻¹
  abs_lymphs: 2.8e+09 L⁻¹
  abs_monos: 6.2e+08 L⁻¹
  abs_neuts: 1.67e+10 L⁻¹
male, Day 1 (pre-dose)
  % BASO: 0.0%
  % EOS: 2.6%
  % MONO: 0.1%
  % NEUT: 58.4%
  HCT: 34.9%
  HGB: 117 g/L
  LYM: 38.9%
  MCH: 25.7 pg
  MCHC: 335 g/L
  MCV: 76.7 fL
  MPV: 11.1 fL
  PCT: 0.267%
  PDW: 15.5
  PLT: 2.4e+11 L⁻¹
  RBC: 4.55e+12 L⁻¹
  RDW-CV: 11.8%
  RDW-SD: 38.1 fL
  WBC: 4.71e+09 L⁻¹
  abs_basos: 0 L⁻¹
  abs_eos: 1.2e+08 L⁻¹
  abs_lymphs: 1.84e+09 L⁻¹
  abs_monos: 0 L⁻¹
  abs_neuts: 2.75e+09 L⁻¹
male, Day 8 (pre-dose)
  % BASO: 5.30%
  % EOS: 1.10%
  % MONO: 13.10%
  % NEUT: 34.60%
  HCT: 35.20%
  HGB: 117.00 g/L
  LYM: 45.90%
  MCH: 25.50 pg
  MCHC: 332.00 g/L
  MCV: 76.70 fL
  MPV: 10.30 fL
  PCT: 0.51%
  PDW: 15.30
  PLT: 4.96e+11 L⁻¹
  RBC: 4.59e+12 L⁻¹
  RDW-CV: 11.50%
  RDW-SD: 37.20 fL
  WBC: 9.15e+09 L⁻¹
  abs_basos: 4.9e+08 L⁻¹
  abs_eos: 1e+08 L⁻¹
  abs_lymphs: 4.19e+09 L⁻¹
  abs_monos: 1.21e+09 L⁻¹
  abs_neuts: 3.16e+09 L⁻¹
male, Day 15 (pre-dose)
  % BASO: 0.10%
  % EOS: 3.10%
  % MONO: 4.40%
  % NEUT: 65.7%
  HCT: 37.4%
  HGB: 127 g/L
  LYM: 26.70%
  MCH: 25.3 pg
  MCHC: 340 g/L
  MCV: 74.5 fL
  MPV: 9.5 fL
  PCT: 0.593%
  PDW: 15.4
  PLT: 6.23e+11 L⁻¹
  RBC: 5.02e+12 L⁻¹
  RDW-CV: 11.5%
  RDW-SD: 36.3 fL
  WBC: 1.326e+10 L⁻¹
  abs_basos: 2e+07 L⁻¹
  abs_eos: 4.1e+08 L⁻¹
  abs_lymphs: 3.54e+09 L⁻¹
  abs_monos: 5.9e+08 L⁻¹
  abs_neuts: 8.7e+09 L⁻¹
